Laboratory results published in PMC7691559 (Journal of Pesticide Science, 2020).
Changes are numbered by the printed parent chain.

Tests used:
Experiment in all cases: spectrophotometric GST assay, nonlinear regression
Type in all cases: biochemical
Conditions in all cases: read-out: CDNB / Km; 5 mM GSH, CDNB varied
[1] = target: T1, bmGSTu2 (Bombyx mori, UniProt A9XI30)
T1 sequence (A9XI30 1-233): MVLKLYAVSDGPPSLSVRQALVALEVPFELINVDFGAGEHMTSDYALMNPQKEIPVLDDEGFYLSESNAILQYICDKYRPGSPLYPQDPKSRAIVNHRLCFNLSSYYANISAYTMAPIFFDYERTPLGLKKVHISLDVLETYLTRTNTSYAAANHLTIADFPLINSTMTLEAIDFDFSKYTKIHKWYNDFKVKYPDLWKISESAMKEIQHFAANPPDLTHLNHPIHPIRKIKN

[2] = target: T2, bmGSTu2 (Bombyx mori, UniProt A9XI30, P162A)
T2 sequence (A9XI30 1-233 P162A): T1 sequence (A9XI30 1-233) with P162A

[3] = target: T3, bmGSTu2 (Bombyx mori, UniProt A9XI30, S166A)
T3 sequence (A9XI30 1-233 S166A): T1 sequence (A9XI30 1-233) with S166A

[4] = target: T4, bmGSTu2 (Bombyx mori, UniProt A9XI30, N102A)
T4 sequence (A9XI30 1-233 N102A): T1 sequence (A9XI30 1-233) with N102A

SMILES: O=[N+]([O-])c1ccc(Cl)c([N+](=O)[O-])c1 [CDNB, 1-chloro-2,4-dinitrobenzene]
- Km [1]: 280 µM
- Km [2]: 2100 µM
- Km [3]: 720 µM
- Km [4]: 940 µM
